In EP0133934A2, “Pharmacologically active 1,3,4-thiadiazol-(3,2-a)-thieno-(2,3-d)-pyrimidin-5-(H)one derivatives” (NIKEPHARMA S.r.l., priority 1983, dated 1985):

Experiments:
[1] = tested on: Carrageenin pleuritis; test: Carrageenin pleuritis in the rat; format: in vivo; conditions: for EXUDATE VOLUME: 30 min. before carrageenin and 6 hours after, exudate at 18 hours, controls 2.76 ± 0.38
Procedure: Compound HA-34 was tested for the protective activity against the exudative pleuritis reaction induced by carrageenin. HA-34 was administered 30 min. before the injection of carrageenin, and 6 hours after it. The experiment was carried out on male Spra- gue-Dawley rats, anestethized with ethyl urethane, which were subjected, in their right pleural cavity, to injection of 1.5 ml of air and then 0.1 ml of a 1% carrageenin solution, in sterile normal saline, according to the procedure by Van Armann et al. (J. Pharmac. Exp. Ther., 150, 328, 1965). Indometha cin and Piroxicam were employed as the control drugs, under the same conditions. 18 Hours after the intrapleuric carrageenin injec tion, the animals were killed by means of ether inhalation, and the pleuric exudate was collected and measured.

[2] = tested on: Writhing test induced by phenyl-benzoquinone; test: Phenylbenzoquinone writhing test in the rat; format: in vivo; conditions: Rattus norvegicus, po, 10 min, read-out: % INHIBI-TION
Procedure: (§1) The activity tests were carried out on male Spra gue-Dawley rats weighing 200+20 g and on male Swiss mice weighing 26+3 g.
(§2) The test compounds were administered orally by means of gastroesophageal tube, in the form of a suspen sion in a 10 ml/kg mucilage of 5% gum arabic; and intraperitoneally in the form of an aqueous suspen sion added with a few drops of Tween 80, in the con stant volume of 10 ml/kg.

[3] = tested on: acetic acid peritonitis; test: Anti-exudative activity: acetic acid peritonitis in the rat; format: in vivo; conditions: for EXUDATE VOLUME ml ± E.S.: controls 2.58 ± 0.18
Procedure: The test was carried out according to the procedure described by Arrigoni-Martelli (Boll.Chim. Far. 107, 29, 1968). This method is based upon the evaluation of the anti-exudative effect of a drug at the peritoneal level, following a intraperitoneal injection of 10 ml/kg of a 0.5% acetic acid solution.
The compounds under test were administered oral ly one hour before the inflammatory agent; 30 minutes after the treatment the animals were killed and the fluid from the peritoneal cavity was drawn and measured.
The test compounds were administered by oral route 1 hour before intraperitoneal injection of acetic acid (10 ml/kg of a 0.5% solution).
The anti-exudative activity was determined on the basis of the peritoneal exudate of the treated animals, in comparison with the controls.

[4] = tested on: gastric ulceration; format: in vivo, rat; conditions: os
Procedure: To rats fasted for 18 hours, with water ad libitum, were administered the compounds under test at "0" time and after 2 hours. Control rats were treated with established anti-inflammatory agents.
6 Hours after the beginning of the test, the animals were killed by ether inhalation.
Gastric ulceration was assessed on the ground of values ranging from 0 to 4: • 0 = no ulceration; • 1 = slight iperhaemia and/or a few ulcers; • 2 = severe iperhaemia and many punctiform ulcers; • 3 = severe submucosal hemorrage, one large ulcer and many punctiform ulcers; • 4 severe submucosal hemorrage and many large ulcers.
The ulcerogenic index was measured by the following formula (Lwoff. J.M., J. Pharmacol., 2, 81, 1971): [formula]

[5] = tested on: phenylbenzoquinone writhing test; test: Phenylbenzoquinone writhing test in the mouse (ED50 and duration of effect); format: in vivo; conditions: for % INHI-BITION / N° OF WRITHES IN 10' ml ± E.S.: Table 6, oral, one hour before the test; for N° OF WRITHES IN 10' ml ± E.S.: controls 52.4 ± 1.69; for % INHIBITION / Nº OF WRITHES IN 10' ml ± E.S.: Table 7, oral 1 mg/kg; for Nº OF WRITHES IN 10' ml ± E.S.: controls 53.2 ± 1.26
Procedure: The analgesic effect was determined by the number of writhes of the abdomen recorded during 10 minutes (from 5 to 15 minutes after the phenylbenzo quinone injection).

[6] = tested on: carrageenin oedema; test: Antiinflammatory activity: carrageenin oedema in the rat; format: in vivo; conditions: po, 4 h, read-out: OEDEMA INHIBITION % at the fourth hour
Procedure: as §1, §2
The compounds under test and the control ones were administered orally one hour before the injection of 0.1 ml of 1% carrageenin in the right paw of the animals.
The volume of the paw was measured by means of a plethysmograph immediately before the injection and 2, 4 and 6 hours after.
The results were expressed as percentage inhibi tion of the oedema in the treated animals in comparison with the control animals, at the time of the maximum oedema development (fourth hour after the carrageenin injection).

[7] = 30 min. before phenylbenzoquinone

Compound: COc1ccc2c(c1)c(CC(=O)O)c(C)n2C(=O)c1ccc(Cl)cc1 [INDO, Indomethacin]
- % INHIBITION ([1]; 5 mg/kg): 51.8%
- EXUDATE VOLUME ([1]; 5 mg/kg): 1.33 ± 0.34
- % INHIBITION ([1]; 10 mg/kg): 72.4%
- EXUDATE VOLUME ([1]; 10 mg/kg): 0.76 ± 0.20
- inhibition in vivo at 0.5 mg/kg [2]: 49%
- inhibition in vivo at 5 mg/kg [2]: 87%
- inhibition in vivo at 1 mg/kg ([3]; Rattus norvegicus, po, Table 4, os, 1 mg/kg): 74%
- inhibition in vivo at 10 mg/kg ([3]; Rattus norvegicus, po, Table 4, os, 10 mg/kg): 93%
- inhibition in vivo at 0.1 mg/kg ([3]; Rattus norvegicus, po, Table 8, oral, 0.1 mg/kg): 37.2%
- inhibition in vivo at 0.5 mg/kg ([3]; Rattus norvegicus, po, Table 8, oral, 0.5 mg/kg): 53%
- inhibition in vivo at 1 mg/kg ([3]; Rattus norvegicus, po, Table 8, oral, 1 mg/kg): 72.8%
- inhibition in vivo at 10 mg/kg ([3]; Rattus norvegicus, po, Table 8, oral, 10 mg/kg): 94.8%
- ED50 ([3]; Rattus norvegicus, oral administration 1 hour before i.p. acetic acid): 0.3 mg/kg
- EXUDATE VOLUME ml ± E.S. ([3]; Table 8, oral, 0.1 mg/kg, 1 hour before acetic acid): 1.62 ± 0.09 mL
- EXUDATE VOLUME ml ± E.S. ([3]; Table 8, oral, 0.5 mg/kg): 1.21 ± 0.07 mL
- EXUDATE VOLUME ml ± E.S. ([3]; Table 8, oral, 1 mg/kg): 0.70 ± 0.09 mL
- EXUDATE VOLUME ml ± E.S. ([3]; Table 8, oral, 10 mg/kg): 0.13 ± 0.04 mL
- ULCERA-TION INDEX [4]: 250
- % ANIMALS WITH ULCERS ([4]; 20 mg/kg): 100%
- ULCERA-TION DEGREE ([4]; 20 mg/kg, scale 0 to 4): 2.5
- ED50 ([5]; Mus musculus, po, 1 h): 0.5 mg/kg
- % INHI-BITION ([5]; 0.1 mg/kg): 22.9%
- N° OF WRITHES IN 10' ml ± E.S. ([5]; 0.1 mg/kg): 40.4 ± 2.46
- % INHI-BITION ([5]; 0.5 mg/kg): 48.1%
- N° OF WRITHES IN 10' ml ± E.S. ([5]; 0.5 mg/kg): 27.2 ± 1.48
- % INHI-BITION ([5]; 1 mg/kg): 87.0%
- N° OF WRITHES IN 10' ml ± E.S. ([5]; 1 mg/kg): 6.8 ± 0.76
- % INHI-BITION ([5]; 5 mg/kg): 91.4%
- N° OF WRITHES IN 10' ml ± E.S. ([5]; 5 mg/kg): 4.5 ± 0.65
- % INHIBITION [5, 7]: 85.5%
- Nº OF WRITHES IN 10' ml ± E.S. [5, 7]: 7.7 ± 1.18
- % INHIBITION ([5]; 1 h before phenylbenzoquinone): 87.8%
- Nº OF WRITHES IN 10' ml ± E.S. ([5]; 1 h before phenylbenzoquinone): 6.5 ± 0.86
- % INHIBITION ([5]; 3 h before phenylbenzoquinone): 88.3%
- Nº OF WRITHES IN 10' ml ± E.S. ([5]; 3 h before phenylbenzoquinone): 6.2 ± 0.70
- % INHIBITION ([5]; 4 h before phenylbenzoquinone): 87.2%
- Nº OF WRITHES IN 10' ml ± E.S. ([5]; 4 h before phenylbenzoquinone): 6.8 ± 0.64
- % INHIBITION ([5]; 6 h before phenylbenzoquinone): 80.4%
- Nº OF WRITHES IN 10' ml ± E.S. ([5]; 6 h before phenylbenzoquinone): 10.4 ± 0.56
- % INHIBITION ([5]; 8 h before phenylbenzoquinone): 60.3%
- Nº OF WRITHES IN 10' ml ± E.S. ([5]; 8 h before phenylbenzoquinone): 21.2 ± 1.26
- % INHIBITION ([5]; 24 h before phenylbenzoquinone): 53.4%
- Nº OF WRITHES IN 10' ml ± E.S. ([5]; 24 h before phenylbenzoquinone): 24.8 ± 1.15
- % INHIBITION ([5]; 32 h before phenylbenzoquinone): 25.9%
- Nº OF WRITHES IN 10' ml ± E.S. ([5]; 32 h before phenylbenzoquinone): 39.4 ± 1.36
- inhibition in vivo at 10 mg/kg [6]: 57.3 ± 0.85%
